In patent US12180187B2, “1-phenyl-5-azinylpyrazolyl-3-oxyalkyl acids and their use for controlling unwanted plant growth” (BAYER AKTIENGESELLSCHAFT, priority 2019, dated 2024):

Legend:
SETVI [1] = experiment: Pre-emergence action against SETVI, 1280 g/ha; type: in vivo, Setaria viridis; settings: visual scoring after about 3 weeks vs untreated controls, 100% = plants have died, 0% = like control plants; for pest or weed control at 1280 g/ha: Setaria viridis, 504 h
Outline: (§1)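 Each pot was doubly sown in sandy loam and covered, then its soil surface was treated with compound suspension or emulsion containing 0.5% additive at 600 L/ha water. Plants grew in a greenhouse; effect was rated visually as percentages versus controls after about 3 weeks.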

DIGSA = experiment: Pre-emergence action at 320 g/ha against DIGSA; type: in vivo, Digitaria sanguinalis; settings: visual scoring after about 3 weeks vs untreated controls; for pest or weed control at 320 g/ha: Digitaria sanguinalis, 504 h
Outline: (§2)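 Visual scoring in percent against untreated controls, about 3 weeks after treatment, where 100% means dead plants and 0% means no difference. Compounds were applied as aqueous suspension or emulsion (WP or EC, plus 0.5% additive) onto soil covering freshly sown seeds, at 600 l/ha water.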

SETVI [2] = experiment: Pre-emergence action at 320 g/ha against SETVI; type: in vivo, Setaria viridis; settings: visual scoring after about 3 weeks vs untreated controls; for pest or weed control at 320 g/ha: Setaria viridis, 504 h
Outline: as §2

AVEFA = experiment: Pre-emergence action at 320 g/ha against AVEFA; type: in vivo; settings: visual scoring after about 3 weeks vs untreated controls; for pest or weed control at 320 g/ha: Avena fatua, 504 h
Outline: as §2

STEME = experiment: Pre-emergence action against STEME, 1280 g/ha; type: in vivo, Stellaria media; settings: scored visually after about 3 weeks vs untreated controls (100% = plants have died); for pest or weed control at 1280 g/ha: Stellaria media, 504 h
Outline: as §1

MATIN = experiment: Pre-emergence action against MATIN, 1280 g/ha; type: in vivo, Tripleurospermum inodorum (Matricaria inodora); settings: scored visually after about 3 weeks vs untreated controls (100% = plants have died); for pest or weed control at 1280 g/ha: Tripleurospermum inodorum, 504 h
Outline: as §1

SETVI [3] = experiment: Post-emergence action against SETVI, 1.28 kg/ha; type: in vivo, Setaria viridis; settings: dosage 1280 g/ha, visual rating about 3 weeks after treatment vs untreated controls
Outline: (§3)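 Greenhouse pot test, sandy loam; weeds sprayed post-emergence at one-leaf stage (2–3 weeks after sowing) with WP or EC formulation plus 0.5% additive, 600 l/ha water. Visual rating after about 3 weeks versus untreated controls, 100% = plants dead, 0% = like control.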

POLCO = experiment: Pre-emergence action at 320 g/ha against POLCO; type: in vivo, Fallopia convolvulus (Polygonum convolvulus); settings: visual scoring after about 3 weeks vs untreated controls; for pest or weed control at 320 g/ha: Fallopia convolvulus, 504 h
Outline: as §2

POAAN [4] = experiment: Post-emergence action against POAAN, 1.28 kg/ha; type: in vivo, Poa annua; settings: dosage 1280 g/ha, visual rating about 3 weeks after treatment vs untreated controls; for pest or weed control at 1280 g/ha: Poa annua, 504 h
Outline: as §3

AMARE [5] = experiment: Pre-emergence action at 320 g/ha against AMARE; type: in vivo, Amaranthus retroflexus; settings: visual scoring after about 3 weeks vs untreated controls; for pest or weed control at 320 g/ha: Amaranthus retroflexus, 504 h
Outline: as §2

ECHCG = experiment: Pre-emergence action against ECHCG, 1280 g/ha; type: in vivo, Echinochloa crus-galli; settings: visual scoring after about 3 weeks vs untreated controls, 100% = plants have died, 0% = like control plants; for pest or weed control at 1280 g/ha: Echinochloa crus-galli, 504 h
Outline: as §1

POAAN [6] = experiment: Pre-emergence action against POAAN, 1280 g/ha; type: in vivo, Poa annua; settings: visual scoring after about 3 weeks vs untreated controls, 100% = plants have died, 0% = like control plants; for pest or weed control at 1280 g/ha: Poa annua, 504 h
Outline: as §1

LOLRI = experiment: Post-emergence action against LOLRI, 1.28 kg/ha; type: in vivo, Lolium rigidum; settings: dosage 1280 g/ha, visual rating about 3 weeks after treatment vs untreated controls
Outline: as §3

VERPE = experiment: Pre-emergence action against VERPE, 1280 g/ha; type: in vivo, Veronica persica; settings: scored visually after about 3 weeks vs untreated controls (100% = plants have died); for pest or weed control at 1280 g/ha: Veronica persica, 504 h
Outline: as §1

ALOMY = experiment: Pre-emergence action at 320 g/ha against ALOMY; type: in vivo, Alopecurus myosuroides; settings: scored visually after about 3 weeks vs untreated controls (100% = plants have died); for pest or weed control at 320 g/ha: Alopecurus myosuroides, 504 h
Outline: as §2

AMARE [7] = experiment: Pre-emergence action against AMARE, 1280 g/ha; type: in vivo, Amaranthus retroflexus; settings: scored visually after about 3 weeks vs untreated controls (100% = plants have died); for pest or weed control at 1280 g/ha: Amaranthus retroflexus, 504 h
Outline: as §1

| SMILES | Pre-emergence action against SETVI (SETVI [1]) [%] | Pre-emergence action against DIGSA in % (DIGSA) [%] | Pre-emergence action against SETVI in % (SETVI [2]) [%] | Pre-emergence action against AVEFA in % (AVEFA) [%] | Pre-emergence action against STEME (STEME) [%] | Pre-emergence action against MATIN (MATIN) [%] | Post-emergence action against SETVI (SETVI [3]) [%] | Pre-emergence action against POLCO in % (POLCO) [%] | Post-emergence action against POAAN (POAAN [4]) [%] | Pre-emergence action against AMARE in % (AMARE [5]) [%] | Pre-emergence action against ECHCG (ECHCG) [%] | Pre-emergence action against POAAN (POAAN [6]) [%] | Post-emergence action against LOLRI (LOLRI) [%] | Pre-emergence action against VERPE (VERPE) [%] | Pre-emergence action at 320 g/ha against ALOMY in % (ALOMY) [%] | Pre-emergence action against AMARE (AMARE [7]) [%] | pest or weed control at 1280 g/ha (SETVI [1]) [%] | pest or weed control at 320 g/ha (DIGSA) [%] | pest or weed control at 320 g/ha (SETVI [2]) [%] | pest or weed control at 320 g/ha (AVEFA) [%] | also measured |
| --- | --- | --- | --- | --- | --- | --- | --- | --- | --- | --- | --- | --- | --- | --- | --- | --- | --- | --- | --- | --- | --- |
| CN(C)S(=O)(=O)NC(=O)COc1nn(-c2ccccc2F)c(-c2ccc(F)nc2)c1Br [Example X-005] | 100 | 100 | 100 | 100 | 100 | 100 | 90 | 90 | 100 | 100 | 100 | 100 | 100 | 100 | 100 | 100 |  |  |  |  |  |
| COC(=O)CNC(=O)COc1nn(-c2ccccc2F)c(-c2ccc(F)nc2)c1C(F)(F)F [Example X-007] | 100 | 100 | 100 | 100 | 100 | 100 | 100 | 90 | 100 | 100 | 100 | 100 | 100 | 100 | 100 | 100 |  |  |  |  |  |
| COC(=O)COc1nn(-c2ccccc2F)c(-c2cncnc2)c1Br [VI-004, Methyl {[4-bromo-1-(2-fluorophenyl)-5-(pyrimidin-5-yl)-1H-pyrazol-3-yl]oxy}acetate] |  |  |  |  |  |  | 90 |  |  |  |  |  | 100 |  |  |  | 100 | 100 | 90 | 90 | pest or weed control at 1280 g/ha (STEME): 100%; pest or weed control at 1280 g/ha (MATIN): 100%; pest or weed control at 320 g/ha (POLCO): 90%; pest or weed control at 1280 g/ha (POAAN [4]): 100%; pest or weed control at 320 g/ha (AMARE [5]): 100%; pest or weed control at 1280 g/ha (ECHCG): 100%; pest or weed control at 1280 g/ha (POAAN [6]): 100%; pest or weed control at 1280 g/ha (VERPE): 90%; pest or weed control at 320 g/ha (ALOMY): 100%; pest or weed control at 1280 g/ha (AMARE [7]): 100% |
| COC(=O)[C@@H](C)Oc1nn(-c2ccccc2F)c(-c2cncnc2)c1Br [VI-011, Methyl (2R)-2-{[4-bromo-1-(2-fluorophenyl)-5-(pyrimidin-5-yl)-1H-pyrazol-3-yl]oxy}propanoate] |  |  |  |  |  |  | 100 |  |  |  |  |  | 100 |  |  |  | 100 | 100 | 100 | 80 | pest or weed control at 1280 g/ha (STEME): 100%; pest or weed control at 1280 g/ha (MATIN): 90%; pest or weed control at 320 g/ha (POLCO): 80%; pest or weed control at 1280 g/ha (POAAN [4]): 100%; pest or weed control at 320 g/ha (AMARE [5]): 100%; pest or weed control at 1280 g/ha (ECHCG): 100%; pest or weed control at 1280 g/ha (POAAN [6]): 100%; pest or weed control at 1280 g/ha (VERPE): 100%; pest or weed control at 320 g/ha (ALOMY): 100%; pest or weed control at 1280 g/ha (AMARE [7]): 100% |
| C[C@@H](Oc1nn(-c2ccccc2F)c(-c2cncnc2)c1Br)C(=O)O [VI-012] | 100 | 100 | 100 | 80 | 100 | 90 | 90 | 80 | 100 | 100 | 90 | 100 | 90 | 100 | 90 | 100 |  |  |  |  |  |
| COC(=O)C(C)Oc1nn(-c2ccccc2)c(-c2ccc(F)nc2)c1Cl (centres unmarked) [VII-023, Methyl 2-{[4-chloro-5-(6-fluoropyridin-3-yl)-1-phenyl-1H-pyrazol-3-yl]oxy}propanoate] |  |  |  |  |  |  |  |  |  |  |  |  | 100 |  |  |  | 100 | 100 | 100 | 90 | pest or weed control at 1280 g/ha (STEME): 100%; pest or weed control at 1280 g/ha (MATIN): 90%; pest or weed control at 320 g/ha (POLCO): 100%; pest or weed control at 1280 g/ha (POAAN [4]): 100%; pest or weed control at 320 g/ha (AMARE [5]): 100%; pest or weed control at 1280 g/ha (ECHCG): 100%; pest or weed control at 1280 g/ha (POAAN [6]): 100%; pest or weed control at 1280 g/ha (VERPE): 100%; pest or weed control at 320 g/ha (ALOMY): 100%; pest or weed control at 1280 g/ha (AMARE [7]): 100% |
| COC(=O)[C@@H](C)Oc1nn(-c2cc(F)ccc2F)c(-c2ccc(F)nc2)c1Br [VII-062] | 100 | 100 | 100 | 100 | 100 | 100 |  | 100 | 100 | 100 | 100 | 100 | 100 | 100 | 100 | 100 |  |  |  |  |  |
| COC(=O)COc1nn(-c2cc(F)ccc2F)c(-c2ccc(F)nc2)c1Br [VII-089] | 100 | 100 | 100 | 90 | 90 | 100 |  | 100 | 100 | 100 | 100 | 100 | 100 | 100 | 100 | 100 |  |  |  |  |  |
| CCOC(=O)COc1nn(-c2ccccc2F)c(-c2ccc(F)nc2)c1C [VII-117] | 100 | 100 | 100 | 100 | 90 | 100 |  | 100 | 100 | 100 | 100 | 100 | 100 | 100 | 100 | 100 |  |  |  |  |  |
